Test results from ChEMBL document CHEMBL4028802, “DILIrank: the largest reference drug list ranked by the risk for developing drug-induced liver injury in humans” (Drug Discov Today, 2016).

How the values were obtained:
Homo sapiens [1] = species on record: Homo sapiens; experiment: Liver toxicity in human assessed as induction of drug-induced liver injury by measuring severity class index
Homo sapiens [2] = species on record: Homo sapiens; experiment: Liver toxicity in human assessed as induction of drug-induced liver injury by measuring verified drug-induced liver injury concern status
Throughout, for DILI severity class: key of the grades not given here.

| SMILES | DILI_severity_class (Homo sapiens [1]) | DILI_Concern (Homo sapiens [2]) |
| --- | --- | --- |
| O=c1[nH]c2ccccc2n1C1CCN(CCCC(c2ccc(F)cc2)c2ccc(F)cc2)CC1 [PIMOZIDE] | 0 | No-Dili-Concern |
| C#CCN(C)[C@H](C)Cc1ccccc1 [SELEGILINE] | 0 | No-Dili-Concern |
| CN[C@@H]1[C@H](O)[C@H](NC)[C@H]2O[C@@]3(O)C(=O)C[C@@H](C)O[C@H]3O[C@@H]2[C@H]1O [SPECTINOMYCIN] | 3 | Ambiguous-Dili-Concern |
| CN(C)C(=O)Oc1ccc[n+](C)c1 [PYRIDOSTIGMINE] | 0 | No-Dili-Concern |
| NC(=O)CC[C@H](N)C(=O)O [GLUTAMINE] | 3 | Ambiguous-Dili-Concern |
| CCC(C)C1(CC)C(=O)NC(=O)NC1=O (stereo not given) [BUTABARBITAL] | 3 | Ambiguous-Dili-Concern |
| C[N+](C)(C)C[C@H](O)CC(=O)[O-] [LEVOCARNITINE] | 0 | No-Dili-Concern |
| O=C(CCNNC(=O)c1ccncc1)NCc1ccccc1 [NIALAMIDE] | 8 | Most-Dili-Concern |
| C[N+]1(C)CCCC(OC(=O)C(O)(c2ccccc2)c2ccccc2)C1 (stereo not given) [MEPENZOLATE] | 0 | No-Dili-Concern |
| C[C@]12C=CC(=O)C=C1CC[C@@H]1[C@@H]2C(=O)C[C@@]2(C)[C@H]1CC[C@]2(O)C(=O)CO [PREDNISONE] | 3 | Less-Dili-Concern |
| O=C(O)CCCO [OXYBATE] | 0 | No-Dili-Concern |
| C[C@H](N)Cc1ccccc1 [DEXTROAMPHETAMINE] | 0 | No-Dili-Concern |
| C1N2CN3CN1CN(C2)C3.O=C(O)CNC(=O)c1ccccc1 [METHENAMINE HIPPURATE] | 3 | Ambiguous-Dili-Concern |
| OC(CCN1CCCCC1)(c1ccccc1)C1CC2C=CC1C2 (stereo not given) [BIPERIDEN] | 0 | No-Dili-Concern |
| NCC1O[C@H](O[C@H]2[C@@H](O)[C@H](O[C@H]3[C@H](O)[C@@H](N)C[C@@H](N)[C@@H]3O[C@H]3O[C@H](CN)[C@@H](O)[C@H](O)[C@H]3N)O[C@@H]2CO)[C@H](N)[C@@H](O)[C@@H]1O (stereo not given in full) | 0 | No-Dili-Concern |
| CCN(CC)CC(=O)Nc1c(C)cccc1C [LIDOCAINE] | 0 | No-Dili-Concern |
| CNC[C@H](O)c1ccc(O)c(O)c1 [EPINEPHRINE] | 0 | No-Dili-Concern |
| CC(C)NCC(O)c1ccc(O)c(O)c1 (stereo not given) [ISOPROTERENOL] | 0 | No-Dili-Concern |
| CC(C)[N+](C)(CCOC(=O)C1c2ccccc2Oc2ccccc21)C(C)C [PROPANTHELINE] | 0 | No-Dili-Concern |
| CNC(=C[N+](=O)[O-])NCCSCc1ccc(CN(C)C)o1 [RANITIDINE] | 5 | Less-Dili-Concern |
| CN(C)CCC=C1c2ccccc2CCc2ccccc21 [AMITRIPTYLINE] | 5 | Less-Dili-Concern |
| C1CNCCN1.C[C@]12CC[C@@H]3c4ccc(OS(=O)(=O)O)cc4CC[C@H]3[C@@H]1CCC2=O [ESTROPIPATE] | 2 | Ambiguous-Dili-Concern |
| Cn1c(=O)c2[nH]cnc2n(C)c1=O.O [THEOPHYLLINE] | 0 | No-Dili-Concern |
| CC(C)Nc1cccnc1N1CCN(C(=O)c2cc3cc(NS(C)(=O)=O)ccc3[nH]2)CC1 [DELAVIRDINE] | 5 | Ambiguous-Dili-Concern |
| CN[C@@H]1CCc2[nH]c3ccc(C(N)=O)cc3c2C1 [FROVATRIPTAN] | 0 | No-Dili-Concern |
